# Patent US12145913B2, “Inhibition of Olig2 activity” (Curtana Pharmaceuticals, Inc., priority 2016, dated 2024)
# System: GBM8 human glioblastoma cells
# Assay: GBM8 viability assay (Cell Titer Glo)
# Assay type: cell-based
# Settings: 72 h, Table 1, 3 days incubation, luminescence
# Procedure: Cell culture medium was prepared from a NSA proliferation kit (Neurocult) and NeuroCult supplements (Stemcell Tech Cat. #05751) and treated with 20 μL of 10 μg/mL rh EGF, 10 μL of 10 μg/mL rh bFGF and 10 μL of 0.2% Heparin. In this medium, human glioblastoma cells were cultured in ultra-low attachment tissue culture flasks until 1×10^6 cells ml was achieved (GBM4 and GBM8 are distinct neurosphere cell cultures derived from these human patient tissues). GBM4 and GBM8 cells were dissociated and 10 mL of media containing 4000 human glioblastoma cells per 90 μL were transferred to an ultra-low binding 96-well plate and incubated at 37° C. overnight. On the following day, 10 μL of a 1% DMSO solution of test compound in assay medium was added to wells containing the cell suspension and the mixture incubated at 37° C. for 3 days. At this time, the plate was removed from the incubator and allowed to reach room temperature. After about 30 minutes, 50 μL of Cell Titer Glo solution was added to each well and the plate shaken for 1 minute at low speed. After 10 minutes luminescence was recorded using a Tecan Safire2 reader.
# Reduction in luminescence compared to DMSO only control wells was used to determine the percentage inhibition of cell growth. IC50s were calculated using the % inhibition of luminescence for serial dilutions of compounds fitted to a 4-parameter fit within the Prism (San Diego) curve fitting program. Tables 1 (compounds 3-188) and 2 (compounds 190-212) show the GBM4 IC50 and GBM8 IC50 for compounds described herein.
row,Compound,IC50 [nM]
1,"Cc1cc(NCCNS(C)(=O)=O)nc(NC(=O)Nc2ccc(OC(F)(F)F)c(Cl)c2)n1 [Compound 151, N-(2-((2-(3-(3-chloro-4-(trifluoromethoxy)phenyl)ureido)-6-methylpyrimidin-4-yl)amino)ethyl)methanesulfonamide]",< 500
2,"Cc1cc(NCCCN(C)C)nc(NC(=O)Nc2cccc(Oc3ccccc3)c2)n1 [Compound 128, 1-(4-((3-(dimethylamino)propyl)amino)-6-methylpyrimidin-2-yl)-3-(3-phenoxyphenyl)urea]",500 to 5000
3,"CONc1cc(C)nc(NC(=O)Nc2ccc3ccccc3c2)n1 [Compound 44, 1-(4-(methoxyamino)-6-methylpyrimidin-2-yl)-3-(naphthalen-2-yl)urea]",< 500
4,"CC(=O)NCCCNc1cc(C)nc(NC(=O)Nc2ccc3cnccc3c2)n1 [Compound 66, N-(3-((2-(3-(isoquinolin-6-yl)ureido)-6-methylpyrimidin-4-yl)amino)propyl)acetamide]",< 500
5,"CNC(=O)CCNc1cc(C)nc(NC(=O)Nc2ccc3cnccc3c2)n1 [Compound 77, 3-((2-(3-(isoquinolin-6-yl)ureido)-6-methylpyrimidin-4-yl)amino)-N-methylpropanamide]",< 500
6,"Cc1cc(NCCN(C)C)nc(NC(=O)Nc2ccc3ccccc3n2)n1 [Compound 97, 1-(4-((2-(dimethylamino)ethyl)amino)-6-methylpyrimidin-2-yl)-3-(quinolin-2-yl)urea]",5000 to 30000
7,"Cc1cc(NCCCNS(C)(=O)=O)nc(NC(=O)Nc2ccc3cnccc3c2)n1 [Compound 71, N-(3-((2-(3-(isoquinolin-6-yl)ureido)-6-methylpyrimidin-4-yl)amino)propyl)methanesulfonamide]",< 500
8,"Cc1cc(NCCC(=O)N(C)C)nc(NC(=O)Nc2ccc3ccccc3c2)n1 [Compound 42, N,N-dimethyl-3-((6-methyl-2-(3-(naphthalen-2-yl)ureido)pyrimidin-4-yl)amino)propanamide]",500 to 5000
9,Cc1cc(NCCCCN)nc(NC(=O)Nc2ccc3ccccc3c2)n1 [Compound 10],< 500
10,"Cc1cc(N)nc(NC(=O)Nc2ccc3ccccc3c2)n1 [Compound 47, 1-(4-amino-6-methylpyrimidin-2-yl)-3-(naphthalen-2-yl)urea]",< 500
11,Cc1cc(NCCOCCO)nc(NC(=O)Nc2ccc3ccccc3c2)n1 [Compound 13],< 500
12,"Cc1cc(NCCCN(C)C)nc(NC(=O)Nc2ccc3ncccc3c2)n1 [Compound 105, 1-(4-((3-(dimethylamino)propyl)amino)-6-methylpyrimidin-2-yl)-3-(quinolin-6-yl)urea]",500 to 5000
13,"Cc1cc(NCCCc2ncc[nH]2)nc(NC(=O)Nc2ccc3ccccc3c2)n1 [Compound 23, 1-(4-((3-(1H-imidazol-2-yl)propyl)amino)-6-methylpyrimidin-2-yl)-3-(naphthalen-2-yl)urea]",< 500
14,CCCNc1cc(C)nc(NC(=O)Nc2ccc3ccccc3c2)n1 [Compound 12],< 500
15,"Cc1cc(NCCN)nc(NC(=O)Nc2ccc3ncccc3c2)n1 [Compound 107, 1-(4-((2-aminoethyl)amino)-6-methylpyrimidin-2-yl)-3-(quinolin-6-yl)urea]",500 to 5000
16,"Cc1cc(NCCN(C)C)nc(NC(=O)Nc2ccc3cnccc3c2)n1 [Compound 51, 1-(4-((2-(dimethylamino)ethyl)amino)-6-methylpyrimidin-2-yl)-3-(isoquinolin-6-yl)urea]",500 to 5000
17,"CCNc1cc(C)nc(NC(=O)Nc2ccc(Oc3ccccc3)cc2)n1 [Compound 134, 1-(4-(ethylamino)-6-methylpyrimidin-2-yl)-3-(4-phenoxyphenyl)urea]",< 500
18,"CC(=O)NCCNc1cc(C)nc(NC(=O)Nc2ccc3ccncc3c2)n1 [Compound 119, N-(2-((2-(3-(isoquinolin-7-yl)ureido)-6-methylpyrimidin-4-yl)amino)ethyl)acetamide]",500 to 5000
19,"CC(=O)NCCCNc1cc(C)nc(NC(=O)Nc2ccc3ccccc3n2)n1 [Compound 100, N-(3-((6-methyl-2-(3-(quinolin-2-yl)ureido)pyrimidin-4-yl)amino)propyl)acetamide]",500 to 5000

row,Compound,IC50 [nM]
1,"Cc1cc(NCCc2ncc[nH]2)nc(NC(=O)Nc2ccc3ccccc3c2)n1 [Compound 22, 1-(4-((2-(1H-imidazol-2-yl)ethyl)amino)-6-methylpyrimidin-2-yl)-3-(naphthalen-2-yl)urea]",< 500
2,"CC(=O)NCCCNc1cc(C)nc(NC(=O)Nc2ccc(OC(C)C)cc2)n1 [Compound 142, N-(3-((2-(3-(4-isopropoxyphenyl)ureido)-6-methylpyrimidin-4-yl)amino)propyl)acetamide]",< 500
3,"Cc1cc(NCCCN(C)C)nc(NC(=O)Nc2ccc3ccccc3n2)n1 [Compound 96, 1-(4-((3-(dimethylamino)propyl)amino)-6-methylpyrimidin-2-yl)-3-(quinolin-2-yl)urea]",500 to 5000
4,"CC(C)c1cc(NCCCN(C)C)nc(NC(=O)Nc2ccc3ccccc3c2)n1 [Compound 188, 1-(4-((3-(dimethylamino)propyl)amino)-6-isopropylpyrimidin-2-yl)-3-(naphthalen-2-yl)urea]",500 to 5000
5,CNCCCN(C)c1cc(C)nc(NC(=O)Nc2ccc3ccccc3c2)n1 [Compound 9],500 to 5000
6,"Cc1cc(NCCN(C)C)nc(NC(=O)Nc2ccc3occc3c2)n1 [Compound 81, 1-(benzofuran-5-yl)-3-(4-((2-(dimethylamino)ethyl)amino)-6-methylpyrimidin-2-yl)urea]",< 500
7,"CN(C)CCCNc1nc(NC(=O)Nc2ccc(Cl)c(Cl)c2)ncc1F [Compound 168, 1-(3,4-dichlorophenyl)-3-(4-((3-(dimethylamino)propyl)amino)-5-fluoropyrimidin-2-yl)urea]",500 to 5000
8,"CC(=O)NCCNc1cc(C)nc(NC(=O)Nc2ccc3occc3c2)n1 [Compound 84, N-(2-((2-(3-(benzofuran-5-yl)ureido)-6-methylpyrimidin-4-yl)amino)ethyl)acetamide]",< 500
9,"CONc1cc(C)nc(NC(=O)Nc2ccc3cnccc3c2)n1 [Compound 61, 1-(isoquinolin-6-yl)-3-(4-(methoxyamino)-6-methylpyrimidin-2-yl)urea]",< 500
10,"Cc1cc(NCCCN)nc(NC(=O)Nc2ccc3ncccc3c2)n1 [Compound 108, 1-(4-((3-aminopropyl)amino)-6-methylpyrimidin-2-yl)-3-(quinolin-6-yl)urea]",500 to 5000
11,"Cc1cc(NO)nc(NC(=O)Nc2ccc(OC(F)(F)F)cc2)n1 [Compound 147, 1-(4-(hydroxyamino)-6-methylpyrimidin-2-yl)-3-(4-(trifluoromethoxy)phenyl)urea]",< 500
12,"Cc1cc(NCCN(C)C)nc(NC(=O)Nc2ccc3ccncc3c2)n1 [Compound 115, 1-(4-((2-(dimethylamino)ethyl)amino)-6-methylpyrimidin-2-yl)-3-(isoquinolin-7-yl)urea]",500 to 5000
13,"CC(C)c1cc(NO)nc(NC(=O)Nc2ccc3ccccc3c2)n1 [Compound 187, 1-(4-(hydroxyamino)-6-isopropylpyrimidin-2-yl)-3-(naphthalen-2-yl)urea]",500 to 5000
14,"Cc1cc(NCCN(C)C)nc(NC(=O)Nc2ccc(OC(C)C)cc2)n1 [Compound 137, 1-(4-((2-(dimethylamino)ethyl)amino)-6-methylpyrimidin-2-yl)-3-(4-isopropoxyphenyl)urea]",< 500
15,"Cc1cc(NCCCN(C)C)nc(NC(=O)Nc2ccc3cnccc3c2)n1 [Compound 50, 1-(4-((3-(dimethylamino)propyl)amino)-6-methylpyrimidin-2-yl)-3-(isoquinolin-6-yl)urea]",< 500
16,"CC(C)c1cc(NO)nc(NC(=O)Nc2ccc(Cl)c(Cl)c2)n1 [Compound 185, 1-(3,4-dichlorophenyl)-3-(4-(hydroxyamino)-6-isopropyl-pyrimidin-2-yl)urea]",500 to 5000
17,"Cc1cc(NCCNC(=O)C(F)(F)F)nc(NC(=O)Nc2ccc3ccccc3c2)n1 [Compound 38, 2,2,2-trifluoro-N-(2-((6-methyl-2-(3-(naphthalen-2-yl)ureido)pyrimidin-4-yl)amino)ethyl)acetamide]",500 to 5000
18,"CNCCCNc1cc(C(C)C)nc(NC(=O)Nc2ccc(Cl)c(Cl)c2)n1 [Compound 184, 1-(3,4-dichlorophenyl)-3-(4-isopropyl-6-((3-(methyl-amino)propyl)amino)pyrimidin-2-yl)urea]",500 to 5000
19,"Cc1cc(NCCNS(C)(=O)=O)nc(NC(=O)Nc2cc3ccccc3cn2)n1 [Compound 93, N-(2-((2-(3-(isoquinolin-3-yl)ureido)-6-methylpyrimidin-4-yl)amino)ethyl)methanesulfonamide]",500 to 5000

# Same assay, conditions: 72 h, Table 2, 3 days incubation, luminescence
row,Compound,IC50 [nM]
1,"CC(C)c1cc(N)nc(NC(=O)Nc2ccc(OC(F)(F)F)cc2)n1 [Compound 196, 1-(4-amino-6-isopropylpyrimidin-2-yl)-3-(4-(trifluoro-methoxy)phenyl)urea]",500 to 5000
2,"CNCCCNc1cc(C(C)C)nc(NC(=O)Nc2ccc(OC(F)(F)F)cc2)n1 [Compound 198, 1-(4-isopropyl-6-((3-(methylamino)propyl)amino)pyrimidin-2-yl)-3-(4-(trifluoromethoxy)phenyl)urea]",500 to 5000
3,"CC(C)c1cc(N)nc(NC(=O)Nc2ccc3ccccc3c2)n1 [Compound 190, 1-(4-amino-6-isopropylpyrimidin-2-yl)-3-(naphthalen-2-yl)urea]",5000 to 30000
